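These data come from cells grown in 96-well plates and exposed to compound for 48 hours at five concentrations. GI50 = concentration required for 50% inhibition of growth.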 Active and inactive are the calls of the source. Rule as the data show it: active = GI50 up to about 1.1 µM and inactive = higher.
Key:
Test in all cases: inhibition of tumour cell growth, NCI panel, 48 h
[1] = tested on: A498
[2] = tested on: U-251
[3] = tested on: SK-MEL-28
[4] = tested on: NCI-H460
[5] = tested on: NCI-H522
[6] = tested on: HOP-92
[7] = tested on: UO-31
[8] = tested on: MOLT-4
[9] = tested on: HT-29
[10] = tested on: OVCAR-8
[11] = tested on: HCT-116
[12] = tested on: UACC-62
[13] = tested on: CCRF-CEM
[14] = tested on: SW-620
[15] = tested on: OVCAR-5
[16] = tested on: SN12C

Measured: GI50

C/C(CC(=O)Nc1cc(Cl)c(Cl)cc1Cl)=N\NS(=O)(=O)c1ccc(C)cc1
inactive: [1] 53.6 µM | [2] 32 µM | [3] 34.2 µM | [4] 38.8 µM | [5] 17.6 µM | [6] 23.1 µM | [7] 21 µM | [8] 29.5 µM | [9] 51.3 µM | [10] 39.3 µM | [11] 23 µM | [12] 26.5 µM | [13] 27.5 µM | [14] 58.3 µM | [15] 53.8 µM

COc1ccc(C(=O)O[C@H]2[C@@H]3C=CO[C@@H](OC4OC(CO)C(O)C(O)C4O)[C@@H]3[C@@]3(CO)O[C@@H]23)cc1O (stereo partly specified)
inactive: [16] > 100 µM | [1] > 100 µM | [2] > 100 µM | [3] > 100 µM | [4] > 100 µM | [5] > 100 µM | [6] > 100 µM | [7] > 100 µM | [8] > 100 µM | [9] > 100 µM | [10] > 100 µM | [12] > 100 µM | [13] > 100 µM | [14] > 100 µM | [15] > 100 µM

CCN1C(C)=NC2C(=O)c3ccccc3C(=O)C21 (stereo unspecified)
inactive: [16] 40.8 µM | [1] > 100 µM | [2] > 100 µM | [3] > 100 µM | [4] 30.1 µM | [7] > 100 µM | [8] 43 µM | [9] 28.8 µM | [10] 74.1 µM | [11] 36.2 µM | [12] 43 µM | [13] 47 µM | [14] 32.6 µM

CS(=O)(=O)OCCN1CCN(C(=O)c2ccc(Cl)c3c(Nc4ccc(S(=O)(=O)N=C(N)N)cc4)c4ccccc4nc23)CC1
inactive: [16] > 100 µM | [1] > 100 µM | [2] > 100 µM | [3] > 100 µM | [4] > 100 µM | [6] > 100 µM | [7] > 100 µM | [8] > 100 µM | [9] > 100 µM | [10] > 100 µM | [11] > 100 µM | [12] > 100 µM | [13] > 100 µM | [15] > 100 µM

CCN(CC)Cc1cc(Nc2ccnc3ccc4nn(C)nc4c23)ccc1O
inactive: [16] 11.3 µM | [2] 15.3 µM | [3] 14 µM | [4] 5.64 µM | [5] 9.29 µM | [7] 11.9 µM | [8] 6.58 µM | [9] 4.7 µM | [10] 11.4 µM | [11] 4.79 µM | [12] 13.7 µM | [13] > 100 µM | [14] 5.55 µM | [15] 12.6 µM
